Laboratory results published in patent US20230057568A1, “COMPOUNDS FOR TREATING FAMILIAL DYSAUTONOMIA” (PTC THERAPEUTICS, INC., priority 2019, published 2023).

Tested on: Elongator complex protein 1 (ELP1, also referred to as IKBKAP)
Test: IKBKAP-HTRF Assay
Format: cell-based, human
Settings: FD patient-derived fibroblasts GM04589, 48 hours incubation; for EC2x for IKBKAP protein expression (concentration producing two times the amount of IKBKAP protein vs DMSO vehicle control): 7-point concentration curve; for MFI (maximum fold increase in IKBKAP protein abundance relative to the vehicle control): HTRF
Experimental: The assay is used for the quantitative determination of Elongator complex protein 1 (ELP1, also referred to as IKBKAP) concentration in cell lysates using the HTRF® (Homogeneous Time-Resolved Fluorescence) technology. IKBKAP is detected in a sandwich HTRF assay by use of an anti-IKAP antibody labeled with a donor and an anti-IKAP antibody labeled with an acceptor.
Cells were thawed and incubated in DMEM-10% FBS for 72 hours. Cells were trypsinized, counted, and re-suspended to a concentration of 50,000 cells/mL in DMEM-10% FBS. A 199 μL, aliquot of the cell suspensions were plated at 10,000 cells per well in a 96 well microtiter plate and incubated for 3 to 5 hours. […] Test compounds were serially diluted 3.16-fold in 100% DMSO to generate a 7-point concentration curve. A 1 μL aliquot of 200× compound solution was transferred to cell-containing wells, and cells were incubated for 48 hours in a cell culture incubator (37° C., 5% CO2, 100% relative humidity). Triplicate samples were set up for each compound concentration. After 48 hours, the supernatant was removed from the cells and 50 μL of the 1× LB4 lysis buffer, containing protease inhibitors, was added to the cells and incubated with shaking at room temperature for 1 hour. A 36 μL aliquot of this lysate was subsequently transferred to the 384-well plate containing 4 μL of the antibody solution (1:50 dilution of anti IKAP d2 and anti-IKAP K(9+8) in detection buffer). The 384-well plate was then centrifuged for 1 minute to bring the solutions to the bottom of the plate and incubated overnight at 4° C. Fluorescence for each well of the plate at 665 nm and 620 nm was measured was on the EnVision plate reader (Perkin Elmer). The AF for each sample is calculated by: […]
wherein Signal is the normalized fluorescence for each sample well and Blank is the average normalized average fluorescence for the Blank control wells.
The maximum fold increase (MFI) in IKBKAP protein abundance for compounds of Formula (I) or a form thereof relative to the vehicle control are provided in Table 1. MFI was calculated by dividing the AF value for each sample well by the sample AF for the vehicle control wells.
The EC2× for IKBKAP protein expression obtained from the 7-point concentration curve generated for each test compound according to the protocol in Biological Example 1 are also provided in Table 1. The term “EC2× for IKBKAP protein expression” is defined as the concentration of test compound that is effective in producing two times the amount of IKBKAP protein in a FD patient cell compared to the amount produced from the DMSO vehicle control.

Row | Structure (SMILES) | EC2x for IKBKAP protein expression (concentration producing two times the amount of IKBKAP protein vs DMSO vehicle control) | MFI (maximum fold increase in IKBKAP protein abundance relative to the vehicle control)
1 | CC[C@H](N)Cc1sc2c(NCc3ccncc3F)nc(Cl)nc2c1C [Cpd 53, 6-[(2S)-2-aminobutyl]-2-chloro-N-[(3-fluoropyridin-4-yl)methyl]-7-methylthieno[3,2-d]pyrimidin-4-amine] | ***** (<0.005 μM) | ***** (>4.9)
2 | CC[C@@H](N)c1sc2c(NCc3ccco3)nc(Cl)nc2c1C [Cpd 49, 6-[(1R)-1-aminopropyl]-2-chloro-N-[(furan-2-yl)methyl]-7-methylthieno[3,2-d]pyrimidin-4-amine] | * (EC2×>1 μM) | * (MFI<1.9)
3 | Cc1c(C[C@H](C)CO)sc2c(NCc3ccco3)nc(Cl)nc12 [Cpd 66, (2S)-3-(2-chloro-4-{[(furan-2-yl)methyl]amino}-7-methylthieno[3,2-d]pyrimidin-6-yl)-2-methylpropan-1-ol] | * (EC2×>1 μM) | * (MFI<1.9)
4 | Cc1c(C[C@H](C)N)sc2c(NCc3ccccc3)nc(Cl)nc12 [Cpd 34, 6-[(2S)-2-aminopropyl]-N-benzyl-2-chloro-7-methylthieno[3,2-d]pyrimidin-4-amine] | ***** (<0.005 μM) | ***** (>4.9)
5 | C[C@H](N)Cc1sc2c(NCc3ccncc3F)nc(Cl)nc2c1Br [Cpd 68, 6-[(2S)-2-aminopropyl]-7-bromo-2-chloro-N-[(3-fluoropyridin-4-yl)methyl]thieno[3,2-d]pyrimidin-4-amine] | ***** (<0.005 μM) | ***** (>4.9)
6 | C[C@H](N)Cc1sc2c(NCc3cccs3)nc(Cl)nc2c1Br [Cpd 82, 6-[(2S)-2-aminopropyl]-7-bromo-2-chloro-N-[(thiophen-2-yl)methyl]thieno[3,2-d]pyrimidin-4-amine] | ***** (<0.005 μM) | ***** (>4.9)
7 | C[C@H](N)Cc1cc2nc(Cl)nc(NCc3ccco3)c2s1 [Cpd 3, 6-[(2S)-2-aminopropyl]-2-chloro-N-[(furan-2-yl)methyl]thieno[3,2-d]pyrimidin-4-amine] | **** (between >0.005 μM and ≤0.02 μM) | **** (between >3.9 and <4.9)
8 | CC(C)[C@H](N)Cc1cc2nc(Cl)nc(NCc3ccco3)c2s1 [Cpd 5, 6-[(2R)-2-amino-3-methylbutyl]-2-chloro-N-[(furan-2-yl)methyl]thieno[3,2-d]pyrimidin-4-amine] | *** (between >0.02 μM and ≤0.5 μM) | *** (between >2.9 and <3.9)
9 | Cc1c(C[C@H](C)N)sc2c(NCc3cccs3)nc(Cl)nc12 [Cpd 28, 6-[(2S)-2-aminopropyl]-2-chloro-7-methyl-N-[(thiophen-2-yl)methyl]thieno[3,2-d]pyrimidin-4-amine] | ***** (<0.005 μM) | ***** (>4.9)
10 | Cc1c(C[C@@H](N)CCO)sc2c(NCc3ccco3)nc(Cl)nc12 [Cpd 97, (3S)-3-amino-4-(2-chloro-4-{[(furan-2-yl)methyl]amino}-7-methylthieno[3,2-d]pyrimidin-6-yl)butan-1-ol] | ***** (<0.005 μM) | ***** (>4.9)
11 | Cc1c(C[C@H](C)N)sc2c(NCc3nccs3)nc(Cl)nc12 [Cpd 29, 6-[(2S)-2-aminopropyl]-2-chloro-7-methyl-N-[(1,3-thiazol-2-yl)methyl]thieno[3,2-d]pyrimidin-4-amine] | ***** (<0.005 μM) | ***** (>4.9)
12 | C[C@H](N)Cc1sc2c(NCc3cccs3)nc(C#N)nc2c1Br [Cpd 83, 6-[(2S)-2-aminopropyl]-7-bromo-4-{[(thiophen-2-yl)methyl]amino}thieno[3,2-d]pyrimidine-2-carbonitrile] | **** (between >0.005 μM and ≤0.02 μM) | ***** (>4.9)
13 | C[C@H](N)Cc1cc2nc(Cl)nc(NCc3ccncc3)c2s1 [Cpd 9, 6-[(2S)-2-aminopropyl]-2-chloro-N-[(pyridin-4-yl)methyl]thieno[3,2-d]pyrimidin-4-amine] | **** (between >0.005 μM and ≤0.02 μM) | ***** (>4.9)
14 | Cc1c(C[C@H](C)N)sc2c(NCc3ccco3)nc(C3CC3)nc12 [Cpd 17, 6-[(2S)-2-aminopropyl]-2-cyclopropyl-N-[(furan-2-yl)methyl]-7-methylthieno[3,2-d]pyrimidin-4-amine] | * (EC2×>1 μM) | * (MFI<1.9)
15 | Clc1nc(NCc2ccncc2)c2scc(Br)c2n1 [Cpd 43, 7-bromo-2-chloro-N-[(pyridin-4-yl)methyl]thieno[3,2-d]pyrimidin-4-amine] | *** (between >0.02 μM and ≤0.5 μM) | **** (between >3.9 and <4.9)
16 | C[C@H](N)c1sc2c(NCc3ccco3)nc(Cl)nc2c1Br [Cpd 46, 6-[(1S)-1-aminoethyl]-7-bromo-2-chloro-N-[(furan-2-yl)methyl]thieno[3,2-d]pyrimidin-4-amine] | * (EC2×>1 μM) | * (MFI<1.9)
17 | Cc1c(C[C@H](C)N)sc2c(NCc3ccno3)nc(Cl)nc12 [Cpd 39, 6-[(2S)-2-aminopropyl]-2-chloro-7-methyl-N-[(1,2-oxazol-5-yl)methyl]thieno[3,2-d]pyrimidin-4-amine] | *** (between >0.02 μM and ≤0.5 μM) | ***** (>4.9)
18 | Cc1c(C[C@H](C)N)sc2c(NCc3ccncc3)nc(Cl)nc12 [Cpd 45, 6-[(2S)-2-aminopropyl]-2-chloro-7-methyl-N-[(pyridin-4-yl)methyl]thieno[3,2-d]pyrimidin-4-amine] | ***** (<0.005 μM) | ***** (>4.9)
19 | Cc1ccc(CNc2nc(Cl)nc3c(C)c(C[C@H](C)N)sc23)o1 [Cpd 24, 6-[(2S)-2-aminopropyl]-2-chloro-7-methyl-N-[(5-methylfuran-2-yl)methyl]thieno[3,2-d]pyrimidin-4-amine] | *** (between >0.02 μM and ≤0.5 μM) | *** (between >2.9 and <3.9)
20 | Clc1nc(NCc2ccco2)c2sccc2n1 [Cpd 2, 2-chloro-N-[(furan-2-yl)methyl]thieno[3,2-d]pyrimidin-4-amine] | * (EC2×>1 μM) | *** (between >2.9 and <3.9)
